Literature values as cited in US8475827B2, “Tissue implants for implantation and methods for preparing the same” (CryoLife, Inc., priority 2010, dated 2013).

System: sensitive bacteria
Details: literature review

NCC[C@H](O)C(=O)N[C@@H]1C[C@H](N)[C@@H](O[C@H]2O[C@H](CN)[C@@H](O)[C@H](O)[C@H]2O)[C@H](O)[C@H]1O[C@H]1O[C@H](CO)[C@@H](O)[C@H](N)[C@H]1O [amikacin]
minimum inhibitory concentration against sensitive bacteria (MIC) range: 0.125 to 32 µg/mL
